Test results reported in US11504368B2, “2,6-diamino-3,4-dihydropyrimidin-4-one derivatives and use thereof in therapy” (THOMAS HELLEDAYS STIFTELSE FÖR MEDICINSK FORSKNING, priority 2018, dated 2022).
Counter-ions that a name gives are not always drawn.

Assays:
MTHFD2 = MTHFD2 (Homo sapiens (Human), UniProt P13995); experiment: Inhibition of MTHFD2 (NAD(P)H-Glo luminescence); format: biochemical; details: 3.4 nmol/L MTHFD2, 5 μmol/L folitixorin, 250 μmol/L NAD+; mean of at least 3 independent measurements
Method: DMSO was used as negative control. The serial dilution in DMSO, from compound DMSO stock solution, was created by dispensing from a 384-well low dead volume microplate (LP-0200, Labcyte) and a 384-well polypropylene microplate 2.0 (PP-0200, Labcyte). A total of 2.5 μL MTHFD2 was preincubated with compound or DMSO for 10 min. The enzymatic reaction was initiated by adding 2.5 μL folitixorin (F680350, Toronto Research Chemicals). For background control, 5 μL buffer was added to the well. […] The final concentrations of all reagents in a total assay volume of 5 μL per well were 50 mmol/L Tris-HCl at pH 8.0, 100 mmol/L NaCl, 5 mmol/L MgCl2, 25 mmol/L Na3PO4 at pH 8.0, 0.005% (v/v) Tween-20, and 2 mmol/L 2-mercaptoethanol. After 15 min reaction time, 5 μL NAD(P)H-Glo detection reagent (G9061 or G9062, Promega) was dispensed in all wells and the plate was incubated for 60 min. Luminescence was measured on a plate reader (Envision, PerkinElmer or Sense, Hidex). The light signal produced is proportional to the amount of NAD(P)H in the sample. IC50 values were determined by fitting a four parameter sigmoidal curve model using XLfit (IDBS). Reported IC50 values are the mean of at least 3 independent measurements.

HL-60 cells = experiment: Cancer cell viability assay (HL-60, resazurin); format: cell-based; details: Homo sapiens, 96 h, mean of at least 3 independent measurements, read-out: HL60 cell proliferation inhibition EC50
Method: HL-60 cells (human promyelocytic leukemia cells) were seeded in a 384-well plate at a density of 2,000 cells per well in 50 μL induction medium and treated with vehicle (DMSO) or an 11-point concentration range with 3-fold dilution in concentration of compound. Each assay point was run in duplicate. Wells without cells but with DMSO were used as negative controls. The cells were left to proliferate over a period of 96 h, in an incubator at 37° C. and 5% CO2, followed by an addition of 10 μL […] resazurin sodium salt (199303, Sigma-Aldrich) dissolved in DPBS (14190, Gibco). After 4 h of incubation at 37° C. and 5% CO2, the fluorescent signal was measured using an excitation wavelength of 544 nm and an emission wavelength of 595 nm in a Hidex Sense plate reader. Cell plates were incubated in boxes with damp paper tissues to avoid evaporation. All additions, except compound and DMSO, were done using the Multidrop Combi (Thermo Fisher Scientific). DMSO and compounds were pre-dispensed with an Echo 550 Liquid handler (Labcyte) in black, clear bottom, TC-treated and sterile 384-well plates (3764, Corning). Growth medium consisted of RPMI 1640 GlutaMAX (61870, Gibco), 10% (v/v) FBS (10500, Gibco), and 1% (v/v) P/S (15070, Gibco). Induction medium consisted of RPMI 1640 GlutaMAX (61870, Gibco), 5% (v/v) FBS (10500, Gibco), and 1% (v/v) P/S (15070, Gibco). EC50 values were determined by fitting a four parameter sigmoidal curve model using XLfit (IDBS). Reported EC50 values are the mean of at least 3 independent measurements.

MTHFD2, sequence (P13995 36-350): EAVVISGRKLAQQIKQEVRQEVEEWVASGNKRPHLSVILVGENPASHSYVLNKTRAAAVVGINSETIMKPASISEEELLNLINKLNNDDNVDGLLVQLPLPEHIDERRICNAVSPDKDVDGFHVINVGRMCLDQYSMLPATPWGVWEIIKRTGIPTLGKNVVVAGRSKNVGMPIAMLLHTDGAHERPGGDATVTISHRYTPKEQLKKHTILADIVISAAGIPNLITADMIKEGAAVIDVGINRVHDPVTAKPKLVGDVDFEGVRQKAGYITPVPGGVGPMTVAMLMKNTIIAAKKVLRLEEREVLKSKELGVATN

Row | IC50 (MTHFD2) [µM] | EC50 (HL-60 cells) [µM] | Compound
1 | 1.1 | 0.161 | Nc1nc(N)c(CC(=O)Nc2cnc(C(=O)N[C@@H](CCC(=O)O)C(=O)O)c(C(F)(F)F)c2)c(=O)[nH]1 [Example 30, (2S)-2-((5-[2-(2,4-diamino-6-oxo-1,6-dihydropyrimidin-5-yl)acetamido]-3-(trifluoromethyl)pyridin-2-yl)formamido)pentanedioic acid]
2 | 0.046 | 0.037 | Nc1nc(N)c(NC(=O)Nc2ccc(C(=O)N[C@@H](CC3CCCC3)C(=O)O)nc2)c(=O)[nH]1 [Example 11, (2S)-3-cyclopentyl-2-[(5-{[(2,4-diamino-6-oxo-1,6-dihydropyrimidin-5-yl)carbamoyl]amino}pyridin-2-yl)formamido]propanoic acid]
3 |  | 0.187 | Nc1nc(N)c(NC(=O)Nc2ccc(C(=O)N[C@@H](CCc3ccccc3)C(=O)O)nc2)c(=O)[nH]1 [Example 14, (2S)-2-[(5-{[(2,4-diamino-6-oxo-1,6-dihydropyrimidin-5-yl)carbamoyl]amino}pyridin-2-yl)formamido]-4-phenylbutanoic acid]
4 | 0.023 | 0.47 | Nc1nc(N)c(NC(=O)Nc2ccc(C(=O)N[C@H](C(=O)O)c3ccccc3)nc2)c(=O)[nH]1 [Example 15, (2S)-2-[(5-{[(2,4-diamino-6-oxo-1,6-dihydropyrimidin-5-yl)carbamoyl]amino}pyridin-2-yl)formamido]-2-phenylacetic acid]
5 | 0.043 | 0.835 | Nc1nc(N)c(NC(=O)Nc2ccc(C(=O)N[C@@H](CCC(=O)N[C@@H](CCC(=O)O)C(=O)O)C(=O)O)nc2)c(=O)[nH]1 [Example 23, (2S)-2-[(4S)-4-carboxy-4-[(5-{[(2,4-diamino-6-oxo-1,6-dihydropyrimidin-5-yl)carbamoyl]amino}pyridin-2-yl)formamido]butanamido]pentanedioic acid]
6 | 0.017 | 0.007 | Nc1nc(N)c(NC(=O)Nc2ccc(C(=O)N[C@H](C(=O)O)C3CCCCC3)nc2)c(=O)[nH]1 [Example 12, (2S)-2-cyclohexyl-2-[(5-{[(2,4-diamino-6-oxo-1,6-dihydropyrimidin-5-yl)carbamoyl]amino}pyridin-2-yl)formamido]acetic acid]
7 | 0.01 | 0.1 | Nc1nc(N)c(NC(=O)Nc2cnc(C(=O)N[C@@H](CCC(=O)O)C(=O)O)c(F)c2)c(=O)[nH]1 [Example 6, (2S)-2-[(5-{[(2,4-diamino-6-oxo-1,6-dihydropyrimidin-5-yl)carbamoyl]amino}-3-fluoropyridin-2-yl)formamido]pentanedioic acid]
8 | 0.008 | 0.02 | CC(C)[C@H](NC(=O)c1ncc(NC(=O)Nc2c(N)nc(N)[nH]c2=O)cc1F)C(=O)O [Example 31, (2S)-2-[(5-{[(2,4-diamino-6-oxo-1,6-dihydropyrimidin-5-yl)carbamoyl]amino}-3-fluoropyridin-2-yl)formamido]-3-methylbutanoic acid]
9 | 0.044 | 1.12 | COc1nc(C(=O)N[C@@H](CCC(=O)O)C(=O)O)ccc1NC(=O)Cc1c(N)nc(N)[nH]c1=O [Example 29, (2S)-2-({5-[2-(2,4-diamino-6-oxo-1,6-dihydropyrimidin-5-yl)acetamido]-6-methoxypyridin-2-yl}formamido)pentanedioic acid]
10 | 0.011 | 0.197 | Nc1nc(N)c(NC(=O)Nc2ccc(C(=O)N[C@@H](CCC(=O)NS(=O)(=O)c3ccccc3)C(=O)O)nc2)c(=O)[nH]1 [Example 16, (2S)-4-[(benzenesulfonyl)carbamoyl]-2-[(5-{[(2,4-diamino-6-oxo-1,6-dihydropyrimidin-5-yl)carbamoyl]amino}pyridin-2-yl)formamido]butanoic acid]
11 | 0.03 | 1.94 | Nc1nc(N)c(NC(=O)Nc2ccc(C(=O)N[C@@H](CCC(=O)N[C@H](CCC(=O)O)C(=O)O)C(=O)O)nc2)c(=O)[nH]1 [Example 25, (2R)-2-[(4S)-4-carboxy-4-[(5-{[(2,4-diamino-6-oxo-1,6-dihydropyrimidin-5-yl)carbamoyl]amino}pyridin-2-yl)formamido]butanamido]pentanedioic acid]
12 | 0.013 | 0.01 | Nc1nc(N)c(CC(=O)Nc2cnc(C(=O)N[C@@H](CCc3nnn[nH]3)C(=O)O)c(F)c2)c(=O)[nH]1 [Example 32, (2S)-2-((5-[2-(2,4-diamino-6-oxo-1,6-dihydropyrimidin-5-yl)acetamido]-3-fluoropyridin-2-yl)formamido)-4-(1H-1,2,3,4-tetrazol-5-yl)butanoic acid]
13 | 0.068 | 0.01 | Nc1nc(N)c(NC(=O)Nc2ccc(C(=O)N[C@@H](Cc3ccccc3)C(=O)O)nc2)c(=O)[nH]1 [Example 2, (2S)-2-[(5-{[(2,4-diamino-6-oxo-1,6-dihydropyrimidin-5-yl)carbamoyl]amino}pyridin-2-yl)formamido]-3-phenylpropanoic acid; trifluoroacetic acid]
14 | 0.06 | 0.177 | CC(C)[C@H](NC(=O)c1ncc(NC(=O)Cc2c(N)nc(N)[nH]c2=O)cc1F)C(=O)O [Example 34, (2S)-2-((5-[2-(2,4-diamino-6-oxo-1,6-dihydropyrimidin-5-yl)acetamido]-3-fluoropyridin-2-yl)formamido)-3-methylbutanoic acid]
15 | 0.154 | 0.017 | Nc1nc(N)c(CC(=O)Nc2ccc(C(=O)N[C@@H](CCC(=O)O)C(=O)O)nc2)c(=O)[nH]1 [Example 7, (2S)-2-((5-[2-(2,4-diamino-6-oxo-1,6-dihydropyrimidin-5-yl)acetamido]pyridin-2-yl)formamido)pentanedioic acid hydrochloride]
16 | 0.053 | 0.035 | Nc1nc(N)c(CC(=O)Nc2ccc(C(=O)N[C@@H](CCc3nnn[nH]3)C(=O)O)nc2)c(=O)[nH]1 [Example 9, (2S)-2-((5-[2-(2,4-diamino-6-oxo-1,6-dihydropyrimidin-5-yl)acetamido]pyridin-2-yl)formamido)-4-(1H-1,2,3,4-tetrazol-5-yl)butanoic acid]
17 | 0.913 | 0.034 | Cc1cc(NC(=O)Cc2c(N)nc(N)[nH]c2=O)cnc1C(=O)N[C@@H](CCC(=O)O)C(=O)O [Example 20, (2S)-2-({5-[2-(2,4-diamino-6-oxo-1,6-dihydropyrimidin-5-yl)acetamido]-3-methylpyridin-2-yl}formamido)pentanedioic acid]
18 | 0.195 | 12.8 | Nc1nc(N)c(NC(=O)Nc2ccc(C(=O)N[C@@H](CC(=O)O)C(=O)O)nc2)c(=O)[nH]1 [Example 22, (2S)-2-[(5-{[(2,4-diamino-6-oxo-1,6-dihydropyrimidin-5-yl)carbamoyl]amino}pyridin-2-yl)formamido]butanedioic acid]
19 | 0.003 | 0.045 | Nc1nc(N)c(NC(=O)Nc2ccc(C(=O)N[C@@H](CCC(=O)O)C(=O)O)nc2OC2CC2)c(=O)[nH]1 [Example 18, (2S)-2-[(6-cyclopropoxy-5-{[(2,4-diamino-6-oxo-1,6-dihydropyrimidin-5-yl)carbamoyl]amino}pyridin-2-yl)formamido]pentanedioic acid]
20 | 0.019 | 0.031 | CC(C)[C@H](NC(=O)c1ccc(NC(=O)Nc2c(N)nc(N)[nH]c2=O)cn1)C(=O)O [Example 3, (2S)-2-[(5-{[(2,4-diamino-6-oxo-1,6-dihydropyrimidin-5-yl)carbamoyl]amino}pyridin-2-yl)formamido]-3-methylbutanoic acid; trifluoroacetic acid]

Row | Compound | IC50 (MTHFD2) [µM] | EC50 (HL-60 cells) [µM]
21 | Nc1nc(N)c(CC(=O)Nc2cnc(C(=O)N[C@@H](CCC(=O)O)C(=O)O)c(F)c2)c(=O)[nH]1 [Example 10, (2S)-2-((5-[2-(2,4-diamino-6-oxo-1,6-dihydropyrimidin-5-yl)acetamido]-3-fluoropyridin-2-yl)formamido)pentanedioic acid] |  | 0.014
